Legend:
[1] = test system: layer II/III pyramidal neurons of the prefrontal cortex; test: In vivo dendritic spine analysis (Golgi stain, Neurolucida); design: species or system rat
FHC = test: Neuronal FHC protein levels by Western blot in cultured cortical neurons; type: cell-based, rat
Method: Rat cortical neurons were cultured in the presence of a glial feeder layer, using the bilaminar cell culture model. Due to the presence of glia this culture system largely preserves the in vivo mechanisms of neuronal growth and differentiation, but also allows for direct studies on neurons, which were separated from glia at the time of analysis. Selected experiments were performed using glia-free neuronal cultures, as noted, using previously described protocols (Sengupta et al., 2009, J. Neurosci. 29:2534-2544). Neurons were transfected at the time of plating by Nucleofection (Amaxa), or after 8 days in culture by lipofectamine (Invitrogen). All experiments were conducted at 21 DIV, unless otherwise noted. HDAC4 and control (scrambled) siRNA were obtained from Ambion (s170677 and 4390843), and FHC/scrambled shRNA from GenScript (custom order; shRNA vector also expressed GFP).
Protease and phosphatases inhibitors were added to both buffers.
Rat cortical neurons were cultured in serum-free media in the presence of a glial feeder layer (Shimizu, et al., 2011, J. Vis. Exp. 57). This culture system largely preserves the in vivo environment, due to the presence of glia; however, it still enables direct investigation of neurons that can be separated by the glia before experiments. Selected studies were also performed in neurons grown in the absence of glia for the entire culture period, as indicated (Sengupta, et al., 2009, J. Neurosci. 29(8):2534-44). All experiments were conducted between 8-13 days in vitro (DIV).
Total protein extracts were obtained using standard protocols. […] The following antibodies were used: anti-FHC (3998, Cell Signaling Technology, 1:1,000) and anti-β-actin (A2066, Sigma-Aldrich, 1:5,000).

IL-1β = test: ELISA of secreted IL-1β in neuronal/glial co-cultures; type: cell-based, rat; settings: 200 pM for 24 hours; vs controls
Method: (§1) TNF-α and IL-1β secreted protein levels were determined from co-culture supernatants using commercially available rat TNF-α and IL-1β kits (Quantikine, R&D Systems). The assays were performed following the manufacturer's instructions. Absorbance was read at 450 nm using Wallac Victor2 1420 Multilabel Counter (PerkinElmer). The concentration of secreted TNF-α and IL-1β are expressed as picograms per milliliter (pg/mL); values were normalized to total protein content for each well.

TNF-α = test: ELISA of secreted TNF-α in neuronal/glial co-cultures; type: cell-based, rat; settings: 200 pM for 24 hours; vs controls
Method: as §1

[2] = Attention set-shifting task after gp120 infusions; type: in vivo, rat; settings: SD rats, vs BSA
Method: Rats (200-400 g, male Sprague-Dawley, Taconic Farms) were stereotaxically implanted, under isoflurane anesthesia, with stainless-steel cannulas placed 0.96 mm posterior and 3.18 mm lateral to bregma, 3.47 mm below the surface of the cranium at an angle of 22°. Four stainless-steel screws (#0-80) were placed around the cannula and acrylic dental cement was used to anchor the cannula. Animals were allowed seven days to recover before receiving a bilateral infusion of 1 μl of gp120IIIB (50 ng/μl) once daily for seven days via a 10 microliter Hamilton Syringe, needle diameter 0.48 mm; infusion rate=0.374 microliters/minute. Animals were food restricted and began behavioral testing 21 days following the final infusion.
Animals were tested in an attention set-shifting task (Birrell & Brown, 2000, J. Neurosci. 20(11); 4320-4324). On day 1 of testing, food restricted rats are habituated to the testing chamber for 20 minutes. The testing chamber (17″×22″×10″ H) is divided lengthwise by a plexiglass wall with a guillotine-style door creating a waiting area (one-third of the chamber), and a testing area (remaining two-thirds of the chamber). The far wall of the testing area (furthest from the waiting area) is bisected by a plexiglass divider that extended 9.25 inches; thus creating two distinct yet easily accessible sides of the testing area. The following day, rats are trained to dig in terra cotta pots to obtain a food reward (Frosted Cheerio). The food reward is progressively buried deeper in the pots, filled with corn cob bedding, until the rat reliably digs to retrieve the food reward. On day 3, rats undergo exemplar training, discriminating between sensory cues to determine which pot contains the food reward. […] If the rat begins digging in the incorrect pot, the pots are removed from the testing area, the rat is placed back into the waiting area, and the trial is recorded as incorrect. […]

## gp120IIIB: X4-using HIV-1 envelope protein gp120, from Immunodiagnostics
[1]; gp120-treated rats vs BSA
  average dendrite length: no changes in the average dendrite length
  number of branching points: reduced number of branching points
[1]; gp120IIIB 50 ng/μl, 1 μl bilateral infusion once daily for seven days, vs BSA
  spine density: reduction of spine density in layer II/III PFC neurons
FHC; in the presence of glial feeder layer, 200 pM, up to 24 hr
  neuronal expression of FHC: able to increase neuronal expression of FHC
FHC; pure neuronal cultures, 200 pM for 3, 6, or 24 hours
  neuronal FHC protein levels: only transiently increased FHC
IL-1β
  secreted IL-1β levels in culture media: significantly higher
TNF-α
  secreted TNF-α levels in culture media: significantly higher
[2]; testing 21 days after final infusion
  attention set-shifting performance: impaired attention set-shifting performance
[2]
  extra-dimensional shifts: impaired in extra-dimensional shifts
  reversal learning (Reversal 2, Reversal 3): impaired in the reversal learning component of the task
